The source made the active and inactive calls. The calls are words filed in the database; no cut-off is given here.
Legend:
[1] = target: T1, Angiotensin-converting enzyme (Homo sapiens, UniProt P12821); assay: Inhibition of testis ACE C domain
[2] = target: T1, Angiotensin-converting enzyme; assay: Inhibition of somatic ACE N domain upto 500 uM
[3] = target: T1, Angiotensin-converting enzyme; assay: Selectivity for ACE C domain over ACE N domain

T1 sequence (P12821 whole entry): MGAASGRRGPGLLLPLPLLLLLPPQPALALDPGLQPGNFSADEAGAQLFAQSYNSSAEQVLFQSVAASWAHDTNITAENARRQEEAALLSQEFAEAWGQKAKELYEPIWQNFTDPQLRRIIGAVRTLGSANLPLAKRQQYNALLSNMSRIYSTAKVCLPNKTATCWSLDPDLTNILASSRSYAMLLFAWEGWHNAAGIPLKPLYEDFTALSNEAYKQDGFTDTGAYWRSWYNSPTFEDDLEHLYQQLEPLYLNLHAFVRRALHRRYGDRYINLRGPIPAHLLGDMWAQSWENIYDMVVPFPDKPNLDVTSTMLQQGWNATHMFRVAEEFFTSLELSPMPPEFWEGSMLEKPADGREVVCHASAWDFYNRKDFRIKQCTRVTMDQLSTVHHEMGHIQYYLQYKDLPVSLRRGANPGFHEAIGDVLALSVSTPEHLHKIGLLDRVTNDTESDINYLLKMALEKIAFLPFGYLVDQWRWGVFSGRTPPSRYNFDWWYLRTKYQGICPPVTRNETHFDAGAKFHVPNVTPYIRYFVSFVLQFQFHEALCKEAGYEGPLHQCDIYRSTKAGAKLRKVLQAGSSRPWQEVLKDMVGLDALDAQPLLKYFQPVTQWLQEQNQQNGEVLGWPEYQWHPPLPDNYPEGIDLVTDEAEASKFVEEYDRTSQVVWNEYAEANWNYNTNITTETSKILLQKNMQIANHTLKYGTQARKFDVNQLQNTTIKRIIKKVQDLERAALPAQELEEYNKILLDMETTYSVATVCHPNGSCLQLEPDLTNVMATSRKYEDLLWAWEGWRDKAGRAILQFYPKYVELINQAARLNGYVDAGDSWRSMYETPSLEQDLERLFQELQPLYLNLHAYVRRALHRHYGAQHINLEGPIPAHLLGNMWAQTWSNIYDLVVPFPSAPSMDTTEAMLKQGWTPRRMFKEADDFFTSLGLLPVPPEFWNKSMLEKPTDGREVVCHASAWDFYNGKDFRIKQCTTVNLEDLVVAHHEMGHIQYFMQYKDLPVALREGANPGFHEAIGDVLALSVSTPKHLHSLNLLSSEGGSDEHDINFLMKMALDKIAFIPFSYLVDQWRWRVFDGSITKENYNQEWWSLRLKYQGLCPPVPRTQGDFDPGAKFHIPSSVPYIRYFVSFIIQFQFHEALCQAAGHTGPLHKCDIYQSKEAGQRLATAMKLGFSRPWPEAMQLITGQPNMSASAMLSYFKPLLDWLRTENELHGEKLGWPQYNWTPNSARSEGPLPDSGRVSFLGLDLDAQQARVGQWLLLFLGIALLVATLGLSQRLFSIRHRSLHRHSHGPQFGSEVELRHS

NCCCC[C@H](N[C@H](CCc1ccccc1)C(=O)O)C(=O)N[C@@H](Cc1c[nH]c2ccccc12)C(=O)O
Ki [1]: 26.3 µM
Activity [2]: inactive
Ratio Ki [3]: > 25

NCCCC[C@H](N[C@@H](CCc1ccccc1)C(=O)O)C(=O)N[C@@H](Cc1c[nH]c2ccccc12)C(=O)O
Ki [1]: 7 µM
Activity [2]: inactive
Ratio Ki [3]: > 100
